Where two headings read alike, the source gives them in different places.
Key:
Lewis lung carcinoma = experiment: Anti-tumor effect, Lewis lung carcinoma (Pharmacological Experiment 6); format: in vivo, mouse (C57BL/6 male); details: for Inhibition (development of solid tumor) / Tumor weight: 5 days, 14th day; for Tumor weight: mean ± standard deviation, n = 10
Experimental: An anti-tumor effect of the organogermanium compound according to the invention is examined.
C57BL/6 male mice (n=10) as experimental animals were subcutaneously implanted with 1×10^5 cells of Lewis lung carcinoma to form a solid tumor. The organogermanium compound (Example 4) dissolved in 4% bovine serum albumin was orally administered at the dose of 0.1, 1.0 and 10.0 mg/kg once a day for 5 days on days 1 to 5 after the tumor implantation.
On 14th day from the implantation, formed solid tumor was removed and weighed. An antitumor effect represented the inhibitory percent of the compound on the development of solid tumor.

[1] = tested on: chronic liver injury induced by carbon tetrachloride (serum transaminases); experiment: Action to chronic liver injury induced by carbon tetrachloride (Pharmacological Experiment 11); format: in vivo, rat (Wister male); details: for s-GOT / s-GPT: 10 weeks every other day, mean ± standard error, n = 10
Experimental: An action of the organogermanium compound of the invention to a chronic liver injury to be induced by carbon tetrachloride, as an experimental model for liver injury is checked, through measurement of serum transaminases, as indexes.
To Wister male rats (n=10 for each group), carbon tetrachloride was intraperitoneally administered at the dose of 480 mg/kg at 2 times by each week for 10 weeks to induce a chronic liver injury.
To the […] in each Test group, the compound according to the invention (Example 4) dissolved in 4% bovine serum albumin solution was orally administered at the dose of 0.1, 1.0 and 10.0 mg/kg/day over 10 weeks in every other day.
After having lapsed 2 days from the final administration of carbon tetrachloride, a blood letting was carried out to measure GOT and GPT values in serum.

Sarcoma 180 tumor cells = experiment: Anti-tumor effect, Sarcoma 180 (Pharmacological Experiment 7); format: in vivo, mouse (ICR male); details: for Inhibition (development of solid tumor) / Tumor weight: 10 days, 20th day; for Tumor weight: mean ± standard error, n = 10
Experimental: An anti-tumor effect of the organogermanium compound according to the invention is examined to Sarcoma 180 tumor cells.
Sarcoma 180 tumor cells were subcutaneously implanted with 2×10^6cells to male ICR mice (n=10) as experimental animals to form a solid tumor. The organogermanium compound (Example 4) dissolved in 4% bovine serum albumin was orally administered at the dose of 0.1, 1.0 and 10.0 mg/kg once a day for 10 days on the day after the implantation.
On the 20th day from the implantation, formed solid tumor was removed and weighed. An antitumor effect represented the inhibitory percent of the compound on the development of solid tumor.

tumor bearing mice [2] = experiment: Influence on delayed type hypersensitivity in tumor bearing mice (Pharmacological Experiment 3); format: in vivo, mouse (ICR male); details: for Foot pad swelling: 24 hours, mean ± standard error, n = 10
Experimental: To investigate the effect of the organogermanium compound on the cellular immunity, we employed the delayed type hypersensitivity (DTH) of mice. Tumor bearing mice were used as experimental animals with reduced immunity and effect of the compound on the reduced DTH reaction was assayed.
Sarcoma 180 cells (10^6 cells) were intraperitoneally implanted to ICR male mice (age of 8 weeks) and after 3 hours from the implantation, 10^6 cells of SRBC were injected by intravenous route. Four days later, 2×10^8 cells of SRBC were intracutaneus injection to hind foot pad. After 24 hours from the injection, the swelling of the foot pad was observed by stereoscopic microscope.
To the mice in each test group, the organogermanium compound (Example 4) dissolved in 4% bovine serum albumin was orally administered at the time 4 days before the immunization at the dose of 0.1, 1.0 and 10.0 mg/kg.

tumor bearing mice [3] = experiment: Influence on antibody production in tumor bearing mice (Pharmacological Experiment 1); format: in vivo, mouse (ICR male); details: for Number of PFC: 5 days, mean ± standard error, n = 7
Experimental: Influence of the organogermanium compound on antibody production ability is checked with use of tumor bearing mice, as experimental animals reduced in their immunity response.
Tumor bearing mice were prepared by implanting 2×10^6 cells of mouse tumor cell (Sarcoma 180) under a skin of each ICR male mouse (age of 6 weeks) to form a solid tumor.
The organogermanium compound (Production Example 4) dissolved in 4% bovine serum albumin solution was orally administered to the tumor bearing mice over 5 days after lapsed 9 days from the implantation of the tumor cells, by a dose of 0.1, 1.0 or 10.0 mg/kg/day.
After lapsed 14 days from the implantation, 2×10^8 cells of sheep red blood cells (SRBC) were injected in a tail vein of the mice for sensitization. After 4 days from the sensitization, spleen was removed and number of PFC in 10^6 spleen cells was measured, as an index of the antibody production in the tumor bearing mice.

[4] = tested on: interferon (IFN) production; format: in vivo, mouse (BALB/c male); details: for INF titer: lung supernatant, three days, mean ± standard error, n = 5
[5] = tested on: Influenza virus (A/PR/S strain); experiment: Anti-virus effect, influenza virus infection model of mouse (Pharmacological Experiment 9); format: in vivo, mouse (BALB/c male); details: for Ratio of survival / Average life: 6 days; for Ratio of survival: 20 days from infection
Experimental: An antiviral effect of the compound according to the invention is investigated with an experimental influenza virus infection model of mouse.
Influenza virus (A/PR/S strain) was inoculated into a trachea of BALB/c male mice at 9.0 PFU/mouse. The organogermanium compound (Example 4) dissolved in 4% bovine serum albumin solution was orally administered at the dose of 0.1, 1.0 and 10.0 mg/kg once a day for 6 days from the day just after the infection to the 5th day therefrom.
A mortality of the mice was observed over 20 days from the virus infection.

[6] = tested on: Vaccinia virus (DI strain); format: in vivo, mouse (ddy male); details: for Inhibition (pocks) / Number of pocks: 7th day; for Number of pocks: mean ± standard error, n = 10, (***) p < 0.001 vs Control
[7] = 1.0 mg/kg orally once a day, (*) p < 0.05 vs Control
[8] = 1.0 mg/kg/day orally, (*) p < 0.05 vs Control
[9] = 0.1 mg/kg (as printed in Table 8) orally

Sodium 2-oxygermylethanesulfonate polymer [Example 4]
Inhibition (development of solid tumor) (Lewis lung carcinoma; 0.1 mg/kg orally once a day): 6.8%
Tumor weight (Lewis lung carcinoma; 0.1 mg/kg orally once a day): 1.77 ± 0.47 g
Inhibition (development of solid tumor) (Lewis lung carcinoma; 1.0 mg/kg orally once a day): 46.3%
Tumor weight (Lewis lung carcinoma; [7]): 1.02 ± 0.16 g
Inhibition (development of solid tumor) (Lewis lung carcinoma; 10.0 mg/kg orally once a day): 28.4%
Tumor weight (Lewis lung carcinoma; 10.0 mg/kg orally once a day): 1.36 ± 0.31 g
Growth of Lewis lung carcinoma (result in words) (Lewis lung carcinoma; 0.1, 1.0 and 10.0 mg/kg orally): significantly inhibited the growth of Lewis lung carcinoma
s-GOT ([1]; 0.1 mg/kg/day orally): 1200 ± 180
s-GPT ([1]; 0.1 mg/kg/day orally): 1005 ± 97 Karmen Unit
s-GOT [1, 8]: 1054 ± 140
s-GPT [1, 8]: 940 ± 83 Karmen Unit
s-GPT ([1]; 10.0 mg/kg/day orally): 1086 ± 112 Karmen Unit
s-GOT ([1]; 10.0 mg/kg/day orally, (*) p < 0.05 vs Control): 1020 ± 164
GOT and GPT values (result in words) ([1]; by the dose of 1.0 mg/kg orally): noticeably decreasing GOT and GPT values
Inhibition (development of solid tumor) (Sarcoma 180 tumor cells; 0.1 mg/kg orally once a day): 28%
Tumor weight (Sarcoma 180 tumor cells; 0.1 mg/kg orally once a day): 1.87 ± 0.46 g
Inhibition (development of solid tumor) (Sarcoma 180 tumor cells; 1.0 mg/kg orally once a day): 69%
Tumor weight (Sarcoma 180 tumor cells; [7]): 0.82 ± 0.22 g
Inhibition (development of solid tumor) (Sarcoma 180 tumor cells; 10.0 mg/kg orally once a day): 38%
Tumor weight (Sarcoma 180 tumor cells; 10.0 mg/kg orally once a day): 1.61 ± 0.29 g
Growth of Sarcoma 180 solid tumor (result in words) (Sarcoma 180 tumor cells; 0.1, 1.0 and 10.0 mg/kg orally): reduced the growth of Sarcoma 180 solid tumor cells
Foot pad swelling (tumor bearing mice [2]; 0.1 mg/kg orally): 66.8 ± 7.5 ×0.01 mm
Foot pad swelling (tumor bearing mice [2]; 1.0 mg/kg orally, (***) p < 0.001 vs tumor bearing): 85.0 ± 5.9 ×0.01 mm
Foot pad swelling (tumor bearing mice [2]; 10.0 mg/kg orally, (***) p < 0.001 vs tumor bearing): 74.3 ± 4.9 ×0.01 mm
DTH response of tumor bearing mice (result in words) (tumor bearing mice [2]; 0.1, 1.0 and 10.0 mg/kg orally): significantly restored the reduced DTH response to normal level
Number of PFC (tumor bearing mice [3]; 0.1 mg/kg/day orally, (*) p < 0.05 vs tumor bearing): 745 ± 66 PFC in 10^6 spleen cells
Number of PFC (tumor bearing mice [3]; 1.0 mg/kg/day orally): 948 ± 195 PFC in 10^6 spleen cells
Number of PFC (tumor bearing mice [3]; 10.0 mg/kg/day orally, (***) p < 0.001 vs tumor bearing): 1071 ± 89 PFC in 10^6 spleen cells
Antibody production (result in words) (tumor bearing mice [3]; 0.1-10.0 mg/kg/day orally, depending on dosing amount): the reduced antibody production due to generation of the tumor increased to a normal level
INF titer ([4]; 0.1 mg/kg orally): 49.3 ± 5.3 IU/mg protein
IFN activity, times higher than the control group ([4]; 1.0 mg/kg orally): about 2.5 times
INF titer ([4]; 1.0 mg/kg orally, (**) p < 0.01 vs control): 138.3 ± 17.1 IU/mg protein
IFN activity, times higher than the control group ([4]; 10.0 mg/kg orally): ~2.8 times
INF titer ([4]; 10.0 mg/kg orally, (**) p < 0.01 vs control): 156.7 ± 28.3 IU/mg protein
Ratio of survival ([5]; 0.1 mg/kg orally once a day): 0/10
Average life ([5]; 0.1 mg/kg orally once a day, (*) p < 0.05 vs Control): 10.0 days
Ratio of survival ([5]; 1.0 mg/kg orally once a day): 4/10
Average life ([5]; 1.0 mg/kg orally once a day, (***) p < 0.001 vs Control): 15.2 days
Mice alive at end of test period ([5]; 1.0 mg/kg orally, 20 days from the infection): 4 mice
Ratio of survival ([5]; 10.0 mg/kg orally once a day): 3/10
Average life ([5]; 10.0 mg/kg orally once a day, (**) p < 0.01 vs Control): 13.7 days
Average life vs Control group (result in words) ([5]; each of Testing groups, 0.1, 1.0 and 10.0 mg/kg orally): a significant difference has been recognized
Inhibition (pocks) [6, 9]: 41.0%
Number of pocks [6, 9]: 23 ± 2
Inhibition (pocks) ([6]; 10.0 mg/kg orally): 43.5%
Number of pocks ([6]; 10.0 mg/kg orally): 22 ± 4
Host defense against Vaccinia virus (result in words) ([6]; orally): has host defense function against Vaccinia virus infected mice
